Our source for the inhibition values is patent US9918963B2, “Therapeutic agent for disease based on inhibitory effect of macrophage migration inhibitory factor” (TOYAMA CHEMICAL CO., LTD., priority 2013, dated 2018).

The test addresses T1, MIF (Homo sapiens, UniProt P14174).
T1 construct: (catalogue number not given); host or cells: E. coli BL21 Star (DE3)
T1 sequence (P14174 2-115 limits assumed): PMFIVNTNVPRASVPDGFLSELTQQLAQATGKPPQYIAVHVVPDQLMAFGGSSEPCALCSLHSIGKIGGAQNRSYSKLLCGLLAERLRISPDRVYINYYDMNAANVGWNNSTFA
The experiment in a line: Inhibition of MIF tautomerase activity (L-dopachrome methyl ester, absorbance at 475 nm). The test is classed as biochemical. The settings on record: 30 μmol/L test substance, 10 to 50 nmol/L MIF, pH 6.2, control = 100%; read-out: Inhibition Rate of Tautomerase Reaction. The method, then:
The inhibitory effect of test substances against tautomerase activity of MIF was evaluated by referring to a method of Healy et al. (Cancer Epidemiology Biomarkers and Prevention, 2011, vol. 20, pp. 1516-1523).
In this method, tautomeric reaction from L-3,4-dihydroxyphenylalanine methyl ester (L-dopachrome methyl ester, colored) to 5,6-hydroxyindole-2-carboxylic acid methyl ester (no color) is measured as a change in absorbance at 475 nm.
As an enzyme source, recombinant MIF manufactured by Abcam Plc. or MIF produced and purified by referring to a method of Lubetsky et al. (The Journal of Biological Chemistry, 2002, vol. 277, pp. 24976-24982) was used. A purification method for MIF is described below.
The pET15b vector (Merck) into which the full length gene sequence of MIF had been inserted was transfected E. coli BL21 Star (DE3) strain (Life Technologies Corporation). […] The E. coli were resuspended in buffer (pH 7.5) containing 20 mmol/L Tris (Wako Pure Chemical Industries, Ltd.), 20 mmol/L sodium chloride (Wako Pure Chemical Industries, Ltd.) and 1 mmol/L dithiothreitol (Wako Pure Chemical Industries, Ltd.), and the resultant was subjected to ultrasonic lysis and centrifugation at 15000 rpm for 10 minutes. The thus obtained supernatant was filtered using a 0.20 μm filter, and was allowed to pass through HiTrap Q HP and HiTrap SP HP columns (GE Healthcare Japan Corporation), so as to separate flow-through fractions each of 5 mL. Each of 10 μL of the separated fractions was subjected to the electrophoresis using 5 to 20% polyacrylamide gel (Wako Pure Chemical Industries, Ltd.), and all proteins were stained with Coomassie brilliant blue reagent (Bio-Rad Laboratories, Inc.). On the basis of results thus obtained, a fraction containing a large amount of MIF and containing least amount of other proteins was selected as purified MIF. The concentration of MIF protein was measured by using BCA protein assay reagent (Thermo Fisher Scientific K. K.).
Inhibitory effect of each test substance against MIF tautomerase activity was measured as follows.
A final concentration of 10 to 50 nmol/L of MIF and a final concentration of 30 μmol/L of each test substance or 0.5% dimethyl sulfoxide (Wako Pure Chemical Industries, Ltd.) as a control were added to buffer (pH 6.2) containing 50 mmol/L Bis-Tris (Dojindo Laboratories) and 1 mmol/L EDTA (Dojindo Laboratories), and reaction was performed at room temperature for 15 minutes to give a reaction solution 1.
On the other hand, 1/20 volume of 12 mmol/L L-3,4-dihydroxyphenylalanine methyl ester (Sigma Aldrich) and 1/20 volume of 24 mmol/L sodium periodate (Wako Pure Chemical Industries, Ltd.) were added to buffer having the same composition as that used for obtaining the reaction solution 1, to give a reaction solution 2.
Next, the reaction solution 1 and the reaction solution 2 were mixed, and the temporal change of absorbance at 475 nm of the obtained mixture was immediately measured.
The difference of the absorbencies between the at about 1 minute after the measurement start and at about 5 minutes after was obtained. Assuming that the absorbance change of the control is 100%, an inhibiting rate of the tautomerase reaction in presence of=each test substance was calculated.

On to `CS(=O)(=O)Nc1cc2occ(NC=O)c(=O)c2cc1Oc1ccccc1` [Compound A, N-[7-[(methylsulfonyl)amino]-4-oxo-6-phenoxy-4H-1-benzopyran-3-yl]formamide], for which the inhibition (as a rule, the change of the read-out against control, counted positive when it falls) at 30 µM fell in the range of 50 to 75%.
